Reference: ChEMBL document CHEMBL1201862, “PubChem BioAssay data set” (2004)
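In this assay, cells in 96-well plates receive the compound at five concentrations for 48 hours. Endpoints are linearly interpolated between the surrounding concentrations. GI50 marks 50% less growth.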 Active and inactive are the calls of the source. Cut-off read from the data, not from the text of the source: active = GI50 up to about 1.1 µM and inactive = higher.

Legend:
Experiment in all cases: growth of human tumour cells (NCI), 48 h
[1] = tested on: A549
[2] = tested on: DU-145
[3] = tested on: HCT-116
[4] = tested on: HL-60
[5] = tested on: HOP-92
[6] = tested on: K562
[7] = tested on: KM12
[8] = tested on: LOX IMVI
[9] = tested on: M14
[10] = tested on: MCF7
[11] = tested on: MDA-MB-231
[12] = tested on: MDA-MB-435
[13] = tested on: MDA-N
[14] = tested on: Malme-3M
[15] = tested on: NCI-H226
[16] = tested on: OVCAR-4
[17] = tested on: OVCAR-5
[18] = tested on: SK-MEL-5
[19] = tested on: SNB-19
[20] = tested on: TK-10

| SMILES | GI50 [1] | GI50 [2] | GI50 [3] | GI50 [4] | GI50 [5] | GI50 [6] | GI50 [7] | GI50 [8] | GI50 [9] | GI50 [10] | GI50 [11] | GI50 [12] | GI50 [13] | GI50 [14] | GI50 [15] | GI50 [16] | GI50 [17] | GI50 [18] | GI50 [19] | GI50 [20] |
| --- | --- | --- | --- | --- | --- | --- | --- | --- | --- | --- | --- | --- | --- | --- | --- | --- | --- | --- | --- | --- |
| O=C(SCc1cccc2ccccc12)c1ccc(Cl)cc1 | > 100 µM (inactive) | > 100 µM (inactive) | 66.1 µM (inactive) | 48.5 µM (inactive) | 18.8 µM (inactive) | 48.4 µM (inactive) | > 100 µM (inactive) | > 100 µM (inactive) | > 100 µM (inactive) | > 100 µM (inactive) | > 100 µM (inactive) | 97.1 µM (inactive) | > 100 µM (inactive) | 96.6 µM (inactive) | > 100 µM (inactive) | > 100 µM (inactive) | > 100 µM (inactive) | 45.2 µM (inactive) | > 100 µM (inactive) | > 100 µM (inactive) |
| O=C(OCc1ccccc1)c1ccc(NCc2cc(O)ccc2O)cc1 | 3.9 µM (inactive) | 3.15 µM (inactive) | 1.51 µM (inactive) | 0.303 µM (active) | 0.867 µM (active) | 1.29 µM (inactive) | 1.52 µM (inactive) | 1.14 µM (inactive) | 1.91 µM (inactive) | 2.01 µM (inactive) | 1.91 µM (inactive) | 1.58 µM (inactive) | 1.56 µM (inactive) | 1.56 µM (inactive) | 2.42 µM (inactive) | 1.39 µM (inactive) | 3.85 µM (inactive) | 1.52 µM (inactive) | 2.85 µM (inactive) | 1.95 µM (inactive) |
| Nc1nc(-c2cc(-c3cccc4ccccc34)nc(N)n2)cc(-c2cccc3ccccc23)n1 | > 100 µM (inactive) | > 100 µM (inactive) | > 100 µM (inactive) | > 100 µM (inactive) | > 100 µM (inactive) | > 100 µM (inactive) | > 100 µM (inactive) | > 100 µM (inactive) | > 100 µM (inactive) | > 100 µM (inactive) | > 100 µM (inactive) | > 100 µM (inactive) | > 100 µM (inactive) | > 100 µM (inactive) | > 100 µM (inactive) | > 100 µM (inactive) | > 100 µM (inactive) | > 100 µM (inactive) | > 100 µM (inactive) | > 100 µM (inactive) |
| O=C(O)CNC(=O)C1NC(C(F)(F)F)(C(F)(F)F)OC1(C(F)(F)F)C(F)(F)F (stereo not given) | > 100 µM (inactive) | > 100 µM (inactive) | > 100 µM (inactive) | > 100 µM (inactive) | > 100 µM (inactive) | > 100 µM (inactive) | > 100 µM (inactive) | > 100 µM (inactive) | > 100 µM (inactive) | > 100 µM (inactive) | > 100 µM (inactive) | > 100 µM (inactive) | > 100 µM (inactive) | > 100 µM (inactive) | > 100 µM (inactive) | > 100 µM (inactive) | > 100 µM (inactive) | > 100 µM (inactive) | > 100 µM (inactive) | > 100 µM (inactive) |
| O=S(=O)(N1CCCCN(S(=O)(=O)C(F)(F)F)CCCN(S(=O)(=O)C(F)(F)F)CCCCN(S(=O)(=O)C(F)(F)F)CCCN(S(=O)(=O)C(F)(F)F)CCCCN(S(=O)(=O)C(F)(F)F)CCCN(S(=O)(=O)C(F)(F)F)CCCCN(S(=O)(=O)C(F)(F)F)CCC1)C(F)(F)F | > 31.6 µM (inactive) | > 31.6 µM (inactive) | > 31.6 µM (inactive) | > 31.6 µM (inactive) | 11.1 µM (inactive) | > 31.6 µM (inactive) | > 31.6 µM (inactive) | > 31.6 µM (inactive) | > 31.6 µM (inactive) | > 10 µM (inactive) | > 31.6 µM (inactive) | > 31.6 µM (inactive) | > 31.6 µM (inactive) | > 31.6 µM (inactive) | > 31.6 µM (inactive) | > 100 µM (inactive) | > 100 µM (inactive) | > 31.6 µM (inactive) | > 31.6 µM (inactive) | > 31.6 µM (inactive) |
| CC1(Br)Cc2ccccc2C1=O (stereo not given) | 12.5 µM (inactive) | 13.7 µM (inactive) | 3.86 µM (inactive) | 2.79 µM (inactive) | 6.49 µM (inactive) | 3.33 µM (inactive) | 12.6 µM (inactive) | 3.09 µM (inactive) | 3.09 µM (inactive) | 3.73 µM (inactive) | 6.92 µM (inactive) | 4.47 µM (inactive) | 3.92 µM (inactive) | 3.36 µM (inactive) | 2.34 µM (inactive) | 6.89 µM (inactive) | 3.43 µM (inactive) | 5.71 µM (inactive) | 33.3 µM (inactive) | 16.1 µM (inactive) |
| O=C1C(=Cc2ccccc2[N+](=O)[O-])N=C(c2ccccc2)N1n1c(-c2ccccc2)nc2ccccc2c1=O | 35.7 µM (inactive) | 33.5 µM (inactive) | 17 µM (inactive) | > 10 µM (inactive) | 15.2 µM (inactive) | 31.8 µM (inactive) | 26.9 µM (inactive) | 29.4 µM (inactive) | 42.5 µM (inactive) | 17.5 µM (inactive) | 27.6 µM (inactive) | 32.4 µM (inactive) | 36.4 µM (inactive) | 25.1 µM (inactive) | 32.5 µM (inactive) | 33.4 µM (inactive) | 71.3 µM (inactive) | 31.5 µM (inactive) | 35.3 µM (inactive) | > 100 µM (inactive) |
| C/C(=N/NC(=S)Nc1cccc(Cl)c1)c1ccccn1 | 0.802 µM (active) | 0.532 µM (active) | < 0.0161 µM (active) | < 0.0141 µM (active) | 1.18 µM (inactive) | 0.0324 µM (active) | 0.413 µM (active) | 0.125 µM (active) | 0.242 µM (active) | 0.0151 µM (active) | < 0.0172 µM (active) | 1.31 µM (inactive) | 0.776 µM (active) | 0.301 µM (active) | 0.213 µM (active) | 1.05 µM (active) | 0.0474 µM (active) | 0.37 µM (active) | 2.5 µM (inactive) | 0.322 µM (active) |
| Cc1nn(C(=O)c2ccc(Cl)cc2)c2c1C(c1ccccc1O)SC(=N)N2 (stereo not given) | > 10 µM (inactive) | > 10 µM (inactive) | > 10 µM (inactive) | > 10 µM (inactive) | > 10 µM (inactive) | > 10 µM (inactive) | > 10 µM (inactive) | > 10 µM (inactive) | > 10 µM (inactive) | > 10 µM (inactive) | > 10 µM (inactive) | > 10 µM (inactive) | > 10 µM (inactive) | > 10 µM (inactive) | > 10 µM (inactive) | > 10 µM (inactive) | > 10 µM (inactive) | > 10 µM (inactive) | > 10 µM (inactive) | > 10 µM (inactive) |
| Cc1nn(C(=O)c2ccncc2)c2c1C(c1cccc([N+](=O)[O-])c1)SC(=N)N2 (stereo not given) | > 10 µM (inactive) | > 10 µM (inactive) | > 10 µM (inactive) | > 10 µM (inactive) | > 10 µM (inactive) | > 10 µM (inactive) | > 10 µM (inactive) | > 10 µM (inactive) | > 10 µM (inactive) | > 10 µM (inactive) | > 10 µM (inactive) | > 10 µM (inactive) | > 10 µM (inactive) | > 10 µM (inactive) | > 10 µM (inactive) | > 10 µM (inactive) | > 10 µM (inactive) | > 10 µM (inactive) | > 10 µM (inactive) | > 10 µM (inactive) |
| O=c1oc2ccccc2c(Nc2ccc3c(c2)Sc2ccccc2O3)c1[N+](=O)[O-] | 21.1 µM (inactive) | 27.8 µM (inactive) | 25.5 µM (inactive) | 29.7 µM (inactive) | 20.7 µM (inactive) | 20 µM (inactive) | 24.7 µM (inactive) | 33.3 µM (inactive) | 27.4 µM (inactive) | 18.7 µM (inactive) | 21 µM (inactive) | 29.2 µM (inactive) | 30.9 µM (inactive) | 21.2 µM (inactive) | 23.2 µM (inactive) | 25 µM (inactive) | 34.6 µM (inactive) | 15.8 µM (inactive) | 27 µM (inactive) | 23.6 µM (inactive) |
| CCOC(=O)C1=NOC2(C=C(Br)C(=O)C(Br)=C2)C1 | 22 µM (inactive) | 6.7 µM (inactive) | 1.1 µM (active) | 0.28 µM (active) | 1.82 µM (inactive) | 1.37 µM (inactive) | 13.4 µM (inactive) | 2.47 µM (inactive) | 1.67 µM (inactive) | 2.45 µM (inactive) | 6.78 µM (inactive) | 1.76 µM (inactive) | 1.64 µM (inactive) | 0.625 µM (active) | 25.8 µM (inactive) | 1.8 µM (inactive) | 5.47 µM (inactive) | 7.67 µM (inactive) | 19 µM (inactive) | 0.902 µM (active) |
| COc1cc2cc3c4cc(OC)c(OC)cc4cc[n+]3c(C)c2cc1OC.O=C([O-])CS(=O)(=O)O | > 100 µM (inactive) | 28.4 µM (inactive) | > 100 µM (inactive) | 24.2 µM (inactive) | > 100 µM (inactive) | 61.1 µM (inactive) | > 100 µM (inactive) | > 100 µM (inactive) | > 100 µM (inactive) | 72.8 µM (inactive) | 70.5 µM (inactive) | 42.3 µM (inactive) | 49.4 µM (inactive) | > 100 µM (inactive) | 10.8 µM (inactive) | 17.7 µM (inactive) | > 100 µM (inactive) | 80 µM (inactive) | 17.7 µM (inactive) | > 100 µM (inactive) |
| CCOC(=O)c1[nH]c(Br)c(-c2ccc(Br)cc2)c1Br | 0.863 µM (active) | 1.66 µM (inactive) | 0.376 µM (active) | 2.09 µM (inactive) | 1.14 µM (inactive) | 0.851 µM (active) | 0.459 µM (active) | 0.446 µM (active) | 0.386 µM (active) | 1.87 µM (inactive) | 1.2 µM (inactive) | 0.186 µM (active) | 0.213 µM (active) | 0.38 µM (active) | 1.31 µM (inactive) | 1.3 µM (inactive) | 2.5 µM (inactive) | 0.375 µM (active) | 1.3 µM (inactive) | 3.23 µM (inactive) |
